Results from patent publication US9551722B2, “Amyloid binding agents” (The Regents of the University of California, priority 2009, dated 2017).

Assays:
[1] = target: T1, interaction of the aggregated Aβ peptide with a monoclonal anti-Aβ IgG (Homo sapiens, UniProt P05067); assay: Semi-quantitative ELISA: inhibition of IgG-Aβ fibril interactions; assay type: binding; conditions: anti-Aβ IgG clone 6E10
T1 construct: Aggregated Aβ peptides were generated from synthetic Aβ(1-42) peptides
Procedure: The association of the synthesized compounds with aggregated Aβ peptides was tested using a semi-quantitative ELISA based assay developed by Yang and co-workers. See P. Inbar, J. Yang, Bioorg. Med. Chem. Lett. 2006, 16:1076-1079; P. Inbar, C. Q. Li, S. A. Takayama, M. R. Bautista, J. Yang, ChemBioChem 2006, 7:1563-1566; P. Inbar, M. R. Bautista, S. A. Takayama, J. Yang, Anal. Chem. 2008, 80:3502-3506. The assay is based on screening for molecules that inhibit the interaction of the aggregated Aβ peptide with a monoclonal anti-Aβ IgG raised against residues 1-17 of Aβ. Table 4 provides the concentrations of the compounds corresponding to 50% inhibition (IC50) of the IgG-Aβ interactions as well as the maximal percentage of the IgG's inhibited from binding to the fibrils. […] The maximum inhibition, a measure of the extent of surface coating of the aggregated peptide by the compounds, was determined to be between 40-98% (Table 4). See P. Inbar, J. Yang, Bioorg. Med. Chem. Lett. 2006, 16:1076-1079; P. Inbar, C. Q. Li, S. A. Takayama, M. R. Bautista, J. Yang, ChemBioChem 2006, 7:1563-1566; P. Inbar, M. R. Bautista, S. A. Takayama, J. Yang, Anal. Chem. 2008, 80:3502-3506. […] Specifically, while the maximum inhibition is between 81-98% for the phenyl compounds, it decreases to 58% for the longer naphthalene compound 11 and to 40% for the more conjugated stilbene 19.
Aggregated Aβ peptides were generated from synthetic Aβ(1-42) peptides by dissolving 30 μg of peptide in 90 μL of nanopure water (pH 5-6) and incubating at 37° C. for ≧72 h without agitation. Each well of a 96-well plate (well volume 0.4 mL; clear, flat bottom polypropylene) was coated for 3 h at 25° C. with 50 μL of 1.3 μM solution of Aβ peptides in phosphate-buffered saline (PBS, 10 mM NaH2PO4/Na2HPO4, 138 mM NaCl, 2.7 mM KCl, pH 7.4). After removal of the excess sample, 50 μL solutions of compounds in PBS buffer (various concentrations were obtained by diluting a stock solution with PBS buffer) were incubated in the wells for 12 h. […] The excess solutions were then removed and all wells were blocked for 30 min by adding 300 μL of a 1% (w/v) solution of bovine serum albumin in PBS buffer (BSA/PBS). On occasion, an additional blocking step was performed prior to incubation with solutions of small molecules. The blocking solution was discarded and the wells were washed once with 300 μL of PBS buffer. Wells were incubated for 1 h with 50 μL of a 1.1 nM solution (in 1% BSA/PBS, dilution 1:6000) of anti-Aβ IgG (clone 6E10, monoclonal, mouse), followed by removal of the solution. The wells were washed twice with 300 μL of PBS buffer and incubated for 60 min with 50 μL of the secondary IgG (anti-mouse IgG H+L, polyclonal, rabbit) conjugated with alkaline phosphatase (6.8 nM in 1% BSA/PBS, dilution 1:1000). The solution was discarded, and the wells were washed twice with 300 μL PBS buffer. Bound secondary IgGs were detected by the addition of 50 μL of a p-nitrophenyl phosphate solution (2.7 mM, in 100 mM diethanol amine/0.5 mM magnesium chloride, pH 9.8). Absorbance intensities were determined at 405 nm using a UV-vis spectroscopic plate reader (Sprectramax 190, Molecular Devices, Sunnyvale, Calif.). Each run was performed five times and averaged. Error bars represent standard deviations. Graphs were plotted and fitted with the sigmoid curve fitting.

[2] = Solubility in aqueous media (observation); assay type: physicochemical
[3] = target: T2, pre-aggregated Aβ(1-42) peptide (Homo sapiens, UniProt P05067); assay: Apparent binding constant (Kd) by double reciprocal fluorescence plot; conditions: compound 10, 5, 2.5, 1.25 μM; 5.0 μM pre-aggregated Aβ(1-42); PBS pH 7.4
T2 construct: preaggregated Aβ(1-42) peptides
Procedure: We also measured the apparent binding constants (Kd) of the compounds (in concentrations of 10, 5, 2.5 and 1.25 μM) to 5.0 μM pre-aggregated Aβ(1-42) peptide. The Kd can be measured from the double reciprocal of the fluorescent maximum and the concentration of the compound. See H. LeVine III, Protein Sci. 1993, 2:404-410. […] [22,] See LeVine, Id.; Lockhart, L. Ye, D. B. Judd, A. T. Merritt, P. N. Lowe, J. L. Morgenstern, G. Z. Hong, A. D. Gee, J. Brown, J. Biol. Chem. 2005, 280:7677-7684; M. Biancalana, K. Makabe, A. Koide, S. Koide, J. Mol. Biol. 2008, 383:205-213; M. Biancalana, K. Makabe, A. Koide, S. Koide, J. Mol. Biol. 2009, 385:1052-1063. The Kd corresponds to the −1/(x-intercept) of the linear regression.
Pre-aggregated Aβ(1-42) (5 μM final concentration) was mixed with various concentrations of compounds described herein (10, 5, 2.5, 1.25 μM) in PBS buffer (pH 7.4) and their fluorescence was measured. The negative inverse of the x-intercept of the linear regression, that was drawn between the double reciprocal of the fluorescence intensity maximum and concentration of the compound, represents the compound binding constant (Kd) to Aβ(1-42).
In order to quantify the dissociation constants (Kd's) for the binding of fluorescent compounds with aggregated β-amyloid peptides, we used the method described by LeVine (see H. LeVine III, Protein Sci. 1993, 2, 404-410). This method is similar to the method described by Benesi-Hildebran (see C. Yang, L. Liu, T. W. Mu, Q. X. Guo, Anal. Sci. 2000, 16, 537-539). Here, the fluorescence of the compound was measured with and without the addition of the aggregated peptides in solution. The relative fluorescence enhancement of the compound upon binding to aggregated β-amyloid peptides was determined by taking the difference between F (fluorescence after the addition of aggregated peptides) and F (fluorescence before the addition of aggregated peptides).
In order to estimate the binding constant (Kd) for the compound-Aβ complexes from the fluorescence studies, we made the following assumptions: • 1. All compounds are completely in solution and free of any significant competing binding process such as self-aggregation. • 2. The concentration of unbound compounds can be approximated as close to the total concentration of the compounds. • 3. The binding sites in the aggregated Aβ peptides are not completely occupied at the concentration of Aβ-binding compounds used for the fluorescence studies (i.e., the experiments are carried out under non-saturated binding conditions).
FIG. 2 and FIG. 6 provide double reciprocal plots of the measured fluorescence versus total concentration of compound [GO]. Assuming that [G] can be approximated as close to [GO] (assumption 2), we can obtain estimates for the Kd's of the compound-Aβ complexes from the x-intercept of the linear fits of the data for each compound.

T1 sequence (P05067 672-713 limits assumed): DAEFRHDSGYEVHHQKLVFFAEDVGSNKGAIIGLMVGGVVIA
T2 sequence (P05067 672-713 limits assumed): as above

With COCCOCCOCCOC(=O)/C(C#N)=C/c1ccc(/C=C/c2ccc(N(C)C)cc2)cc1 [Cmpd 19, (E)-2-(2-(2-methoxyethoxyl)ethoxy)ethyl-cyano-3-(4-(4(dimethylamino)styryl)phenyl)acrylate] the IC50 ([1]; 50% inhibition of IgG-Aβ interactions) was 33.6 µM, the “Maximum % inhibition (ELISA)” value ([1]; maximal percentage of IgG inhibited from binding to the fibrils) was 40% and the “Solubility in aqueous media” value [2] was “poor solubility in aqueous media”. It also gave a Kd [3] of 1.4 µM.
